Results as given in US10294202B2, “Pyrrolidinones as herbicides” (FMC Corporation, priority 2013, dated 2019).

Columns and labels:
crabgrass, large = test: Test A pre-/postemergence herbicide test; format: in vivo, Digitaria sanguinalis; conditions: for Crabgrass, Large plant response rating: Preemergence, visual rating on 0 to 100 scale (0 no effect, 100 complete control)
In short: (§1)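 Seeds in loam–sand blend received preemergence directed soil spray; separately, plants 2–10 cm at one- to two-leaf stage received postemergence spray, both with test chemicals in non-phytotoxic solvent with surfactant. After ~10 days in greenhouse, injury rated visually against untreated controls, 0 (no effect) to 100 (complete control).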

rice = test: Test C flooded paddy test; format: in vivo, Oryza sativa; conditions: Flood
In short: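 Visual injury scored against controls after 13 to 15 days in the greenhouse, using 0 (no effect) to 100 (complete control). Test compounds went straight into paddy water held 3 cm above the soil surface on 2-leaf-stage plants, with that flood depth maintained for the whole test.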

oat, wild = test: Test D pre-/postemergence herbicide test; format: in vivo, Avena fatua; conditions: for Plant response rating, Oat, Wild: Preemergence, scale 0 to 100 (0 no effect, 100 complete control); for Plant response rating: Postemergence, Oat, Wild, scale 0 to 100
From the text: (§2) Seeds of plant species selected from bluegrass (annual bluegrass, Poa annua), blackgrass (Alopecurus myosuroides), canarygrass (littleseed canarygrass, Phalaris minor), chickweed (common chickweed, Stellaria media), galium (catchweed bedstraw, Galium aparine), bromegrass, downy (downy bromegrass, Bromus tectorum), field poppy (Papaver rhoeas), field violet (Viola arvensis), foxtail, green (green foxtail, Setaria viridis), deadnettle (henbit deadnettle, Lamium amplexicaule), ryegrass, Italian (Italian ryegrass, Lolium multiflorum), kochia (Kochia scoparia), lambsquarters (Chenopodium album), oilseed rape (Brassica napus), pigweed (Amaranthus retroflexus), chamomile (scentless chamomile, Matricaria inodora), Russian thistle (Salsola kali), speedwell (bird's-eye speedwell, Veronica persica), barley, spring (spring barley, Hordeum vulgare), wheat, spring (spring wheat, Triticum aestivum), buckwheat, wild (wild buckwheat, Polygonum convolvulus), mustard, wild (wild mustard, Sinapis arvensis), oat, wild (wild oat, Avena fatua), radish, wild (wild radish, Raphanus raphanistrum), […]), barley, winter (winter barley, Hordeum vulgare), and wheat, winter (winter wheat, Triticum aestivum) were planted into a silt loam soil and treated preemergence with test chemicals formulated in a non-phytotoxic solvent mixture which included a surfactant. At the same time, these species were planted in pots containing Redi-Earth® planting medium (Scotts Company, 14111 Scottslawn Road, Marysville, Ohio 43041) comprising spaghnum peat moss, vermiculite, wetting agent and starter nutrients and treated with postemergence applications of the test chemicals formulated in the same manner. Plants ranged in height from 2 to 18 cm (1- to 4-leaf stage). Treated plants and controls were maintained in a controlled growth environment for 7 to 21 days after which time all species were compared to controls and visually evaluated. Plant response ratings, summarized in Table D, are based on a scale of 0 to 100 where 0 is no effect and 100 is complete control. A dash (-) response means no test result.

radish, wild = test: Test D pre-/postemergence herbicide test; format: in vivo, Raphanus raphanistrum; conditions: for Plant response rating, Radish, Wild: Preemergence, scale 0 to 100 (0 no effect, 100 complete control); for Plant response rating: Postemergence, Radish, Wild, scale 0 to 100
From the text: as §2

kochia = test: Test A pre-/postemergence herbicide test; format: in vivo, Kochia scoparia
In short: as §1

foxtail, giant = test: Test E preemergence herbicide test; format: in vivo, Setaria faberii; design: key: 0 = no effect, 100 = complete control
From the text: Seeds of plant species selected from corn (Zea mays), soybean (Glycine max), velvetleaf (Abutilon theophrasti), lambsquarters (Chenopodium album), wild poinsettia (Euphorbia heterophylla), pigweed, palmer (palmer pigweed, Amaranthus palmeri), waterhemp (common waterhemp, Amaranthus rudis), surinam grass (Brachiaria decumbens), crabgrass, large (large crabgrass, Digitaria sanguinalis), crabgrass, Brazil (Brazilian crabgrass, Digitaria horizontalis), panicum, fall (fall panicum, Panicum dichotomiflorum), foxtail, giant (giant foxtail, Setaria faberii), foxtail, green (green foxtail, Setaria viridis), goosegrass (Eleusine indica), johnsongrass (Sorghum halepense), ragweed (common ragweed, Ambrosia elatior), barnyardgrass (Echinochloa crus-galli), sandbur (southern sandbur, Cenchrus echinatus), arrowleaf […] rhombifolia), ryegrass, Italian (Italian ryegrass, Lolium multiflorum), dayflower, VA (Virginia dayflower, Commelina virginica), field bindweed (Convolvulus arvensis), morningglory (Ipomoea coccinea), nightshade (eastern black nightshade, Solanum ptycanthum), kochia (Kochia scoparia), nutsedge, yellow (yellow nutsedge, Cyperus esculentus), cocklebur (common cocklebur, Xanthium strumarium), smartweed (ladysthumb smartweed, Polygonum Persicaria) and beggarticks (hairy beggarticks, Bidens pilosa), were planted into a silt loam soil and treated preemergence with test chemicals formulated in a non-phytotoxic solvent mixture which included a surfactant. Treated plants and controls were maintained in a greenhouse for 21 days, after which time all species were compared to controls and visually evaluated. Plant response ratings, summarized in Table E, are based on a scale of 0 to 100 where 0 is no effect and 100 is complete control. A dash (-) response means no test result.

[1] = Postemergence, 125 g ai/ha, 0 to 100 scale, 0 no effect, 100 complete control
[2] = Postemergence, 500 g ai/ha, 0 to 100 scale (0 no effect, 100 complete control)
[3] = preemergence, 500 g ai/ha, 0 to 100 scale
[4] = 62 g ai/ha, scale of 0 to 100 where 0 is no effect and 100 is complete control, 13 to 15 days

Compound	Plant response rating, Crabgrass, Large (crabgrass, large; [1])	Plant response rating, Crabgrass, Large (crabgrass, large; [2])	Crabgrass, Large plant response rating (crabgrass, large; 125 g ai/ha)	Plant response rating, Crabgrass, Large (crabgrass, large; [3])	Plant response rating, Rice (rice; 250 g ai/ha, scale 0 to 100)	Plant response rating, Oat, Wild (oat, wild; 62 g ai/ha)	Plant response rating, Oat, Wild (oat, wild; 125 g ai/ha)	Plant response rating, Oat, Wild (oat, wild; 31 g ai/ha)	Plant response rating, Oat, Wild (oat, wild; 250 g ai/ha)	Plant response rating, Radish, Wild (radish, wild; 62 g ai/ha)	Plant response rating (oat, wild; 31 g ai/ha)	Plant response rating (oat, wild; 62 g ai/ha)	Plant response rating (oat, wild; 125 g ai/ha)	Plant response rating (oat, wild; 250 g ai/ha)	Plant response rating (radish, wild; 31 g ai/ha)	Plant response rating (radish, wild; 62 g ai/ha)	Plant response rating (radish, wild; 125 g ai/ha)	Plant response rating (oat, wild; 16 g ai/ha)	Plant response rating, Oat, Wild (oat, wild; 16 g ai/ha)	Plant response rating, Radish, Wild (radish, wild; 16 g ai/ha)	other results
O=C1NCC(c2ccc(F)c(C(F)(F)F)c2)C1C(=O)Nc1cccc(F)c1F (racemic) [Compound 77]	80	80	90	90	0	15	20	10	45	10	–	–	–	–	–	–	–	–	–	–	Plant response rating, Rice (rice; 500 g ai/ha, scale 0 to 100): 0; Plant response rating, Rice (rice; 1000 g ai/ha, scale 0 to 100): 20; Plant response rating, Rice (rice; 2000 g ai/ha, scale 0 to 100): 60; Plant response rating, Radish, Wild (radish, wild; 125 g ai/ha): 25; Plant response rating, Radish, Wild (radish, wild; 31 g ai/ha): 0; Plant response rating, Radish, Wild (radish, wild; 250 g ai/ha): 30
O=C1NCC(c2ccc(OC(F)F)cc2)C1C(=O)Nc1cccc(F)c1F (racemic) [Compound 350]	–	–	–	–	–	–	–	–	–	–	–	–	–	–	–	–	–	–	–	–	Plant response rating, Kochia (kochia; Postemergence, 125 g ai/ha, visual rating on 0 to 100 scale (0 no effect, 100 complete control), approx. 10 days): 70; Plant response rating, Kochia (kochia; Preemergence, 125 g ai/ha, 0 to 100 scale where 0 is no effect and 100 is complete control): 80; Kochia plant response rating (kochia; Preemergence, 500 g ai/ha, visual rating on 0 to 100 scale (0 no effect, 100 complete control)): 80; Plant response rating, Foxtail, Giant (foxtail, giant; 31 g ai/ha): 0; Plant response rating, Foxtail, Giant (foxtail, giant; 62 g ai/ha): 20; Plant response rating, Foxtail, Giant (foxtail, giant; 125 g ai/ha): 50; Plant response rating, Foxtail, Giant (foxtail, giant; 250 g ai/ha): 80
O=C1NCC(c2ccc(C(F)(F)F)cc2)C1C(=O)Nc1ccccc1F (stereo not drawn) [Compound 231]	–	–	–	–	–	20	25	20	30	0	5	10	10	10	30	70	75	–	–	–	Plant response rating, Kochia (kochia; 125 g ai/ha, visual rating, 0 to 100 scale, 0 no effect, 100 complete control, approximately 10 days, preemergence): 70; Plant response rating, Kochia (kochia; Postemergence, 125 g ai/ha, 0 to 100 scale, 0 is no effect, 100 is complete control): 70; Kochia plant response rating (0 to 100 scale, 0 is no effect, 100 is complete control) (kochia; Postemergence, 500 g ai/ha): 90; Plant response rating, Kochia (kochia; preemergence, 500 g ai/ha, 0 to 100 scale, 0 is no effect and 100 is complete control): 90; Plant response rating (radish, wild; 250 g ai/ha): 70; Plant response rating, Radish, Wild (radish, wild; 125 g ai/ha): 0; Plant response rating, Radish, Wild (radish, wild; 31 g ai/ha): 0; Plant response rating, Radish, Wild (radish, wild; 250 g ai/ha): 0
O=C1NCC(c2ccc(Cl)c(F)c2)C1C(=O)Nc1cccc(F)c1F (stereo not drawn) [Compound 52]	80	80	90	90	15	0	0	0	0	–	0	0	0	0	–	–	–	0	0	0	Plant response rating, Rice (rice; 31 g ai/ha, scale of 0 to 100 where 0 is no effect and 100 is complete control, 13 to 15 days): 10; Plant response rating, Rice (rice; [4]): 10; Plant response rating, Rice (rice; 125 g ai/ha, scale of 0 to 100 where 0 is no effect and 100 is complete control, 13 to 15 days): 10
O=C1NCC(c2ccc(F)c(F)c2)C1C(=O)Nc1ccccc1C(F)(F)F (racemic) [Compound 6]	60	80	80	90	–	0	0	0	0	–	0	0	0	5	0	0	0	0	0	0	Plant response rating (radish, wild; 16 g ai/ha): 0; Plant response rating (radish, wild; 250 g ai/ha): 10
O=C1NCC(c2cc(F)c(F)cc2F)C1C(=O)Nc1cccc(F)c1F (stereo not drawn) [Compound 50]	80	80	90	90	–	0	0	0	–	0	0	0	0	–	0	0	0	0	0	0	Plant response rating (radish, wild; 16 g ai/ha): 0
O=C1NCC(c2ccc(Cl)c(Cl)c2)C1C(=O)Nc1ccccc1F (racemic) [Compound 14]	80	90	90	90	0	–	–	–	–	–	–	–	–	–	–	–	–	–	–	–	Plant response rating, Rice (rice; [4]): 0; Plant response rating, Foxtail, Giant (foxtail, giant; 16 g ai/ha): 0; Plant response rating, Foxtail, Giant (foxtail, giant; 31 g ai/ha): 0; Plant response rating, Foxtail, Giant (foxtail, giant; 62 g ai/ha): 0; Plant response rating, Foxtail, Giant (foxtail, giant; 125 g ai/ha): 10; Plant response rating, Foxtail, Giant (foxtail, giant; 250 g ai/ha): 90
